Our source for the IC50 values is US6638531B1, “Antimicrobial peptides” (priority 1998, dated 2003).

In brackets after ≈: the same amount, converted by molar mass.

A word on the IC50: it is the concentration at which inhibition is half-maximal.

The test system of assay [1] is Candida albicans 32354, ergosterol-deficient mutant. The experiment in a line: Killing of yeasts. The following applies: pH 7, read-out: IC50 values (50% of the inoculum is killed). The class given is cell-based. The procedure:
(§1) 5*10^6 cells of Candida pseudotropicalis, Candida albicans 10231, Cryptococcus neoformans, Candida krusei, Candida parapsilosis, Candida glabrata and Candida albicans 32354 and an ergosterol-deficient mutant thereof were incubated for one and a half hours at 37° C. in the presence of a dilution series of a peptide according to the invention or amphotericin B in 1 mM potassium phosphate buffer, pH 7.0. The viability was determined by plating out. Used as positive control was synthetic PGLa (“Protein beginning with Glycine and ending with Leucin-amide”, with the amino acid sequence […]-amide).

Assay [2] deals with Candida albicans 32354. Put plainly: microbe, parasite or virus in culture. The following applies: Candida albicans, 32354, pH 7, read-out: IC50 values (50% of the inoculum is killed). The procedure: as §1
The subject of assay [3] is Cryptococcus neoformans. Put plainly: microbe, parasite or virus in culture. The following applies: Cryptococcus neoformans, pH 7, read-out: IC50 values (50% of the inoculum is killed). The procedure:
as §1

Assay [4] concerns Candida glabrata. The experiment in a line: microbe, parasite or virus in culture. Particulars: Nakaseomyces glabratus, pH 7, read-out: IC50 values (50% of the inoculum is killed). The procedure: as §1
Assay [5] deals with Candida krusei. The experiment in a line: microbe, parasite or virus in culture. The following applies: Pichia kudriavzevii, pH 7, read-out: IC50 values (50% of the inoculum is killed). The procedure:
as §1

Assay [6] relates to Candida pseudotropicalis. The experiment in a line: microbe, parasite or virus in culture. The following applies: Kluyveromyces marxianus, pH 7, read-out: IC50 values (50% of the inoculum is killed). The protocol: as §1
In assay [7] the test system is Candida parapsilosis. Put plainly: microbe, parasite or virus in culture. The following applies: Lodderomyces parapsilosis, pH 7, read-out: IC50 values (50% of the inoculum is killed). The protocol:
as §1

Assay [8] has as its system Candida albicans 10231. The experiment in a line: microbe, parasite or virus in culture. The following applies: Candida albicans, 10231, pH 7, read-out: IC50 values (50% of the inoculum is killed). The procedure:
as §1

Take `C[C@@H]1[C@H](O)[C@@H](C)/C=C/C=C/C=C/C=C/C=C/C=C/C=C/[C@H](O[C@@H]2O[C@H](C)[C@@H](O)[C@H](N)[C@@H]2O)C[C@@H]2O[C@](O)(C[C@@H](O)C[C@@H](O)[C@H](O)CC[C@@H](O)C[C@@H](O)CC(=O)O[C@H]1C)C[C@H](O)[C@H]2C(=O)O` [amphotericin B]: the IC50 in assay [1] is > 70 µg/mL; in assay [2] it was 2 µg/mL (≈ 2.16 µM); in assay [3], 1 µg/mL (≈ 1.08 µM); in assay [4], 2 µg/mL (≈ 2.16 µM); in assay [5] it was > 70 µg/mL; in assay [6], 8 µg/mL (≈ 8.66 µM). The IC50 is 6 µg/mL (≈ 6.49 µM) in assay [7] and 1 µg/mL (≈ 1.08 µM) in assay [8].
